The source of these data is patent US9777020B2, “Furo-3-carboxamide derivatives and methods of use” (AbbVie Inc., priority 2014, dated 2017).

This assay concerns the target TrkA (Homo sapiens (Human), UniProt P04629). The assay can be described thus: TrkA kinase HTRF enzyme inhibition assay. Particulars: TrkA pre-incubated with 200 μM ATP. The assay is classed as biochemical. The protocol: TrkA enzyme was obtained from Invitrogen (as catalog numbers PV3144, PV3616, and PV3617, respectively). Enzyme activity was measured in an HTRF® (homogeneous time resolved fluorescence) assay, which detects enzymatic phosphorylation of a biotinylated synthetic peptide substrate (an LCK peptide analog, biotin-ahx-[…], from Genemed Synthesis). Phosphorylation is assessed by HTRF® in the presence of an anti-phosphotyrosine antibody conjugated to Eu^3+ cryptate (Cisbio) as donor fluorophore, and streptavidin conjugated to allophycocyanin (ProZyme) as acceptor fluorophore. The HTRF® signal was detected at two different wavelengths (620 nm and 665 nm) which were used to calculate the fluorescence ratio.
TrkA enzyme was titrated to a concentration optimized to ensure accurate measurement of the initial reaction rate. To allow the TrkA enzyme to undergo activation and auto-phosphorylation, a 20 minute pre-incubation with ATP was carried out (at twice the final targeted enzyme and ATP concentration) prior to addition of test compound and the peptide substrate.
TrkA in vitro assays were performed by pre-incubating TrkA (2-10 nM) with ATP (200 μM) for 20 minutes at ambient temperature in 50 mM HEPES pH 7.4, 10 mM MgCl2, 2 mM MnCl2, 100 μM Na3VO4, 1 mM dithiothreitol, 0.01% BSA (bovine serum albumin). Then, to the activated Trk enzyme mixture was added the test compound in 2% dimethyl sulfoxide. After 10 minutes, the peptide substrate (125 nM) was added. After 1 hour, enzyme reactions were terminated by addition of equal reaction volumes of detection/stop reagent (containing 0.2 μg/mL anti-phosphotyrosine monoclonal antibody labeled with europium from Cisbio (catalog#PT66-K), and 4 μg/mL PhycoLink® Streptavidin-Allophycocyanin conjugate from ProZyme (catalog#PJ25S) in 60 mM EDTA in 40 mM HEPES pH 7.4, 480 mM KF, 0.01% Tween® 20 and 0.1% BSA bovine serum albumin) Reaction plates were stored at 4° C. overnight before reading the fluorescence ratio signal on a PerkinElmer EnVision™ fluorescence detector. Individual reaction wells were stopped at time points to obtain reaction rates. The test inhibitor compounds were assayed in duplicate, at half-log serial dilutions over a range of concentrations (e.g. starting at 50 μM or 5 μM as the high compound concentration). The percent Trk enzyme inhibition was calculated from the initial rates of the inhibited reactions relative to the uninhibited control. IC50 values were calculated by fitting the inhibition percent to the concentration of inhibitor [I] in the assay in equation 1 below, to solve for the IC50. Inhibition %=100[I]/([I]+[IC50]) equation 1

Chain of TrkA (P04629 33-796): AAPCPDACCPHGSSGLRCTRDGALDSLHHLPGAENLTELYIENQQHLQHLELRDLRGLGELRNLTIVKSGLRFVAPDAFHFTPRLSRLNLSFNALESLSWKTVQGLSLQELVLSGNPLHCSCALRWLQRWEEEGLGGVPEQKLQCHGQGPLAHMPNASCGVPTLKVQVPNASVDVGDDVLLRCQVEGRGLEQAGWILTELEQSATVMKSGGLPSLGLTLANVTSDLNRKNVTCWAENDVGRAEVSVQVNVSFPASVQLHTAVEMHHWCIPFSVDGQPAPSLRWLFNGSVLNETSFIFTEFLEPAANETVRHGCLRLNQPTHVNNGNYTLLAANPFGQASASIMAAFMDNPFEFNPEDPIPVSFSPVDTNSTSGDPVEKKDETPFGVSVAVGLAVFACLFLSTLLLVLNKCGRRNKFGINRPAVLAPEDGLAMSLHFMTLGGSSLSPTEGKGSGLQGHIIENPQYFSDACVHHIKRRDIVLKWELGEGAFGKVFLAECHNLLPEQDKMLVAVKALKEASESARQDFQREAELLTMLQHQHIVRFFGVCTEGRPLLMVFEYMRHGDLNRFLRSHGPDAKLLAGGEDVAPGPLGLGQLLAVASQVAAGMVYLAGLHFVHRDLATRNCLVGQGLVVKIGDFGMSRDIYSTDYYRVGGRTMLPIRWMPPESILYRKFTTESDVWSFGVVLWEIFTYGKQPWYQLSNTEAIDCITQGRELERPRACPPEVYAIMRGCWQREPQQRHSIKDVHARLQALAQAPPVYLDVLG

Broadly, the IC50 is the midpoint of a concentration-inhibition curve. In turn, `CC(=O)N1CCN(c2ccc(NC(=O)c3coc4c3C(=O)N(CCO)CC4)c(OCCO)n2)CC1` [Example 88, N-[6-(4-acetylpiperazin-1-yl)-2-(2-hydroxyethoxyl)pyridin-3-yl]-5-(2-hydroxyethyl)-4-oxo-4,5,6,7-tetrahydrofuro[3,2-c]pyridine-3-carboxamide] came in with an IC50 of 95 nM.

For the compound `CCOc1nc(CO)ccc1NC(=O)c1coc2c1C(=O)NC(C)(C)C2` [Example 144, N-[2-ethoxy-6-(hydroxymethyl)pyridin-3-yl]-6,6-dimethyl-4-oxo-4,5,6,7-tetrahydrofuro[3,2-c]pyridine-3-carboxamide], the concentration for half-maximal inhibition (IC50) was determined as 49.2 nM.

In the case of `Cc1cc(NC(=O)c2coc3c2C(=O)N(C)CC3)no1` [Example 66, 5-methyl-N-(5-methyl-1,2-oxazol-3-yl)-4-oxo-4,5,6,7-tetrahydrofuro[3,2-c]pyridine-3-carboxamide], half-maximal inhibition (IC50) was put at 5080 nM. The compound `CN1CCc2occ(C(=O)Nc3ccc4[nH]ncc4c3)c2C1=O` [Example 23, N-(1H-indazol-5-yl)-5-methyl-4-oxo-4,5,6,7-tetrahydrofuro[3,2-c]pyridine-3-carboxamide] had an IC50 of 257 nM. Then `CCOc1nc(N2CCN(C(C)=O)CC2)ccc1NC(=O)c1coc2c1C(=O)N(C[C@@H](C)OC(C)=O)CC2` [Example 94, (2R)-1-[3-{[6-(4-acetylpiperazin-1-yl)-2-ethoxypyridin-3-yl]carbamoyl}-4-oxo-6,7-dihydrofuro[3,2-c]pyridin-5(4H)-yl]propan-2-yl acetate], with 1.5 nM. The compound `Cc1cc2[nH]ncc2cc1NC(=O)c1coc2c1C(=O)N(C)CC2` [Example 74, 5-methyl-N-(6-methyl-1H-indazol-5-yl)-4-oxo-4,5,6,7-tetrahydrofuro[3,2-c]pyridine-3-carboxamide] showed a concentration for half-maximal inhibition (IC50) of 2590 nM. Regarding `Cc1ccc(NC(=O)c2coc3c2C(=O)N(C)CC3)cc1` [Example 4, 5-methyl-N-(4-methylphenyl)-4-oxo-4,5,6,7-tetrahydrofuro[3,2-c]pyridine-3-carboxamide], the 50% inhibitory concentration (IC50) was 375 nM.

The compound `COc1ccc(NC(=O)c2coc3c2C(=O)NCC3)c(OC)n1` [Example 35, N-(2,6-dimethoxypyridin-3-yl)-4-oxo-4,5,6,7-tetrahydrofuro[3,2-c]pyridine-3-carboxamide] yielded an IC50 of 117 nM. Turning to `COc1cc(N2CCN(C(=O)CC(C)(C)C)CC2)ccc1NC(=O)c1coc2c1C(=O)NCC2` [Example 79, N-{4-[4-(3,3-dimethylbutanoyl)piperazin-1-yl]-2-methoxyphenyl}-4-oxo-4,5,6,7-tetrahydrofuro[3,2-c]pyridine-3-carboxamide], half-maximal inhibition (IC50) required 44.7 nM. As for `COCCOc1ccc(NC(=O)c2coc3c2C(=O)NC(C)(C)C3)c(OCCOC)n1` [Example 141, N-[2,6-bis(2-methoxyethoxy)pyridin-3-yl]-6,6-dimethyl-4-oxo-4,5,6,7-tetrahydrofuro[3,2-c]pyridine-3-carboxamide], the half-inhibitory concentration (IC50) came out at 60.1 nM. On to `CCOc1nc(N2CCN(C(C)=O)CC2)ccc1NC(=O)c1coc2c1C(=O)N(C(C)(C)CO)CC2` [Example 102, N-[6-(4-acetylpiperazin-1-yl)-2-ethoxypyridin-3-yl]-5-(1-hydroxy-2-methylpropan-2-yl)-4-oxo-4,5,6,7-tetrahydrofuro[3,2-c]pyridine-3-carboxamide], for which the IC50 was found to be 12.7 nM. For `CN1CCN(c2ccc(NC(=O)c3coc4c3C(=O)NCC4)cc2)CC1` [Example 17, N-[4-(4-methylpiperazin-1-yl)phenyl]-4-oxo-4,5,6,7-tetrahydrofuro[3,2-c]pyridine-3-carboxamide], the IC50 worked out at 81.4 nM. Compound `Cn1cc2cc(NC(=O)c3coc4c3C(=O)CC(C)(C(N)=O)C4)ccc2n1` (centres unmarked) [Example 162, 6-methyl-N^3-(2-methyl-2H-indazol-5-yl)-4-oxo-4,5,6,7-tetrahydro-1-benzofuran-3,6-dicarboxamide] showed an IC50 of 58 nM.

With `CC1(C)CC(=O)c2c(C(=O)Nc3ccc4[nH]c(CO)nc4c3)coc2C1` [Example 154, N-[2-(hydroxymethyl)-1H-benzimidazol-5-yl]-6,6-dimethyl-4-oxo-4,5,6,7-tetrahydro-1-benzofuran-3-carboxamide], the half-inhibitory concentration (IC50) was 74 nM. Regarding `CC(=O)N1CCN(c2ccc(NC(=O)c3coc4c3C(=O)NC(C)(C)C4)c(OC(C)C)n2)C[C@H]1CO` [Example 133, N-{6-[(3S)-4-acetyl-3-(hydroxymethyl)piperazin-1-yl]-2-isopropoxypyridin-3-yl}-6,6-dimethyl-4-oxo-4,5,6,7-tetrahydrofuro[3,2-c]pyridine-3-carboxamide], inhibition was half-maximal at 3.3 nM (IC50). Then `CC(C)Oc1nc(N2C[C@H]3CCN[C@H]3C2)ccc1NC(=O)c1coc2c1C(=O)NC(C)(C)C2` [Example 129, N-{6-[(3 aR,6aR)-hexahydropyrrolo[3,4-b]pyrrol-5(1H)-yl]-2-isopropoxypyridin-3-yl}-6,6-dimethyl-4-oxo-4,5,6,7-tetrahydrofuro[3,2-c]pyridine-3-carboxamide], with 10.8 nM; and `CN1CCc2occ(C(=O)Nc3nc4ccccc4s3)c2C1=O` [Example 75, N-(1,3-benzothiazol-2-yl)-5-methyl-4-oxo-4,5,6,7-tetrahydrofuro[3,2-c]pyridine-3-carboxamide], with 2050 nM; and `CC1(C)CC(=O)c2c(C(=O)Nc3ccc(N4CCNCC4)cn3)coc2C1` [Example 151, 6,6-dimethyl-4-oxo-N-[5-(piperazin-1-yl)pyridin-2-yl]-4,5,6,7-tetrahydro-1-benzofuran-3-carboxamide], with 63.4 nM. Turning to `CC(C)Oc1nc(N(CCO)CCO)ccc1NC(=O)c1coc2c1C(=O)NC(C)(C)C2` [Example 140, N-{6-[bis(2-hydroxyethyl)amino]-2-isopropoxypyridin-3-yl}-6,6-dimethyl-4-oxo-4,5,6,7-tetrahydrofuro[3,2-c]pyridine-3-carboxamide], half-maximal inhibition (IC50) was put at 10.5 nM.

On to `Cn1cc2cc(NC(=O)c3coc4c3C(=O)CC3(CC3)C4)ccc2n1` [Example 159, N-(2-methyl-2H-indazol-5-yl)-4-oxo-4,7-dihydro-5H-spiro[1-benzofuran-6,1′-cyclopropane]-3-carboxamide], for which the 50% inhibitory concentration (IC50) turned out to be 10.3 nM. For the compound `COc1nc(N2CCN(C)CC2)ccc1NC(=O)c1coc2c1C(=O)NCCC2` [Example 7, N-[2-methoxy-6-(4-methylpiperazin-1-yl)pyridin-3-yl]-4-oxo-5,6,7,8-tetrahydro-4H-furo[3,2-c]azepine-3-carboxamide], the IC50 amounted to 212 nM.

`O=C(Nc1ccc2[nH]cnc2c1)c1coc2c1C(=O)NCC2` [Example 12, N-(1H-benzimidazol-5-yl)-4-oxo-4,5,6,7-tetrahydrofuro[3,2-c]pyridine-3-carboxamide] registered a 50% inhibitory concentration (IC50) of 99.6 nM.

The compound `Cn1cc2cc(NC(=O)c3coc4c3C(=O)CN(S(C)(=O)=O)C4)ccc2n1` [Example 161, N-(2-methyl-2H-indazol-5-yl)-6-(methylsulfonyl)-4-oxo-4,5,6,7-tetrahydrofuro[2,3-c]pyridine-3-carboxamide] returned an IC50 of 872 nM. In turn, `N#Cc1ccc(NC(=O)c2coc3c2C(=O)NCC3)cc1` [Example 39, N-(4-cyanophenyl)-4-oxo-4,5,6,7-tetrahydrofuro[3,2-c]pyridine-3-carboxamide] had an IC50 of 430 nM.

`Cn1cc2cc(NC(=O)c3coc4c3C(=O)CC(C)(CO)C4)ccc2n1` (centres unmarked) [Example 164, 6-(hydroxymethyl)-6-methyl-N-(2-methyl-2H-indazol-5-yl)-4-oxo-4,5,6,7-tetrahydro-1-benzofuran-3-carboxamide] gave a half-inhibitory concentration (IC50) of 21.9 nM. For `COc1cc(N2CCN(S(=O)(=O)N(C)C)CC2)ccc1NC(=O)c1coc2c1C(=O)NCC2` [Example 81, N-{4-[4-(dimethylsulfamoyl)piperazin-1-yl]-2-methoxyphenyl}-4-oxo-4,5,6,7-tetrahydrofuro[3,2-c]pyridine-3-carboxamide] the value was 65.8 nM; for `CC(=O)N1CCN(c2ccc(NC(=O)c3coc4c3C(=O)N(C)CC4)cc2)CC1` [Example 28, N-[4-(4-acetylpiperazin-1-yl)phenyl]-5-methyl-4-oxo-4,5,6,7-tetrahydrofuro[3,2-c]pyridine-3-carboxamide], 110 nM.

As to `Cc1ccc(NC(=O)c2coc3c2C(=O)NCC3)cc1` [Example 30, N-(4-methylphenyl)-4-oxo-4,5,6,7-tetrahydrofuro[3,2-c]pyridine-3-carboxamide], 521 nM corresponded to half-maximal inhibition (IC50). On to `O=C(Nc1ccon1)c1coc2c1C(=O)NCC2` [Example 36, N-(1,2-oxazol-3-yl)-4-oxo-4,5,6,7-tetrahydrofuro[3,2-c]pyridine-3-carboxamide], for which the IC50 stood at 8010 nM.
